According to ChEMBL document CHEMBL1135499, “Further characterization of structural requirements for ligands at the dopamine D(2) and D(3) receptor: exploring the thiophene moiety” (J Med Chem, 2002):

Legend:
D(3) dopamine receptor = D(3) dopamine receptor (Homo sapiens, UniProt P35462); assay: biochemical
Description: In vitro binding affinity at human Dopamine receptor D3 expressed in CHO K1 cells was measured by its ability to displace [3H]spiperone

D(2) dopamine receptor = D(2) dopamine receptor (Homo sapiens, UniProt P14416); assay: biochemical
Description: In vitro binding affinity at human Dopamine receptor D2 expressed in CHO K1 cells was measured by its ability to displace [3H]- N-0437

[1] = Oral bioavailability in rat; type: ADME, organism-based; conditions: in vivo

Sequence of D(2) dopamine receptor (P14416 whole entry): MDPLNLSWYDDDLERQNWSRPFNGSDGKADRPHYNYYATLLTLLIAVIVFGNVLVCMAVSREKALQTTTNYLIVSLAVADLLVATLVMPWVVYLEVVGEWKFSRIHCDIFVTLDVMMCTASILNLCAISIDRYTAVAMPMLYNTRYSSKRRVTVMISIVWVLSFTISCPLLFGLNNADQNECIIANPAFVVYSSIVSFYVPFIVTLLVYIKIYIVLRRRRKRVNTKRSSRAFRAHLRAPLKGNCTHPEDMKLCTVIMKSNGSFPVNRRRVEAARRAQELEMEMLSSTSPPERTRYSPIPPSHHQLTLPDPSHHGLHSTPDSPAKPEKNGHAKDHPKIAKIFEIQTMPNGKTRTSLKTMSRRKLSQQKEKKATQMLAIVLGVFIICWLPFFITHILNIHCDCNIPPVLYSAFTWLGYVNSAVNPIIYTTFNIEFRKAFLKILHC
Sequence of D(3) dopamine receptor (P35462 whole entry): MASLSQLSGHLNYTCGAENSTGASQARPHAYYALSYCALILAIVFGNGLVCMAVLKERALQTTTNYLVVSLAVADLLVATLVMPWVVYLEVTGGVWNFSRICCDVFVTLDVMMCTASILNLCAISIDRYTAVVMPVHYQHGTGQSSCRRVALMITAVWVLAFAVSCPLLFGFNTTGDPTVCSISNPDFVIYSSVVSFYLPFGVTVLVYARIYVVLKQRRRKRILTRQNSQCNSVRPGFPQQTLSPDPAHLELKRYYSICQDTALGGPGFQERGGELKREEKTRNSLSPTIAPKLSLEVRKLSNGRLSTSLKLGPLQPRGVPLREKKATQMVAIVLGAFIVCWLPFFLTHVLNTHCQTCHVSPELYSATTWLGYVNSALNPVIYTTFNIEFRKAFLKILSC

Row | Ki (D(3) dopamine receptor) [nM] | Ki (D(2) dopamine receptor) [nM] | Compound | bioavailability [1] [%]
1 | 247 | 2040 | CCCN(CCC)CC1CCc2sccc2C1 (stereo unspecified) | 
2 | 1570 | > 3680 | Oc1ccc2c(c1)C1OCCN(CCc3ccccc3)C1CC2 (racemic) | 
3 | 83 | 3680 | Oc1ccc2c(c1)C1OCCN(CCc3cccs3)C1CC2 (racemic) | 
4 | 108 | 439 | CCCN(CCc1ccsc1)CCc1ccsc1 | 
5 | 40 | 20 | CCCN(CCC)C1CCc2sccc2C1 (stereo unspecified) | > 10
6 | 117 | 1080 | CCCN(CCc1ccsc1)CCc1cccs1 | 
7 | 60 | 3110 | CCCN(CCC)CC1CCc2ccsc2C1 (stereo unspecified) | 

Row | Compound | Ki (D(3) dopamine receptor) [nM] | Ki (D(2) dopamine receptor) [nM] | bioavailability [1] [%]
8 | CCCN(CCC)C1CCc2ccsc2C1 (stereo unspecified) | 28 | 27 | 10
9 | CCCN1CCOC2c3ccsc3CCC21 (stereo unspecified) | 240 | 630 | 
10 | c1cc2c(s1)CCC1NCCOC21 (stereo unspecified) | 3000 | > 4780 | 
11 | CCCN1CC(c2ccccc2)OC2c3cc(O)ccc3CCC21 (racemic) | 12 | 375 | 
12 | CCCN(CCC)[C@@H]1Cc2cccc(O)c2C[C@H]1C | 0.54 | 14 | 
